In US20210355105A1, “REGULATOR OF NITROGEN-CONTAINING HETEROAROMATIC DERIVATIVES, PREPARATION METHOD THEREFOR AND USE THEREOF” (Jiangsu Hansoh Pharmaceutical Group Co., Ltd., priority 2018, published 2021) one finds IC50 data, which are given here for 18 molecules.

Experiment [1] addresses T1, SHP-2 full-length protein (Homo sapiens, UniProt Q06124).
T1 construct: purchased BPS Bioscience 79330
T1 sequence (Q06124 1-593): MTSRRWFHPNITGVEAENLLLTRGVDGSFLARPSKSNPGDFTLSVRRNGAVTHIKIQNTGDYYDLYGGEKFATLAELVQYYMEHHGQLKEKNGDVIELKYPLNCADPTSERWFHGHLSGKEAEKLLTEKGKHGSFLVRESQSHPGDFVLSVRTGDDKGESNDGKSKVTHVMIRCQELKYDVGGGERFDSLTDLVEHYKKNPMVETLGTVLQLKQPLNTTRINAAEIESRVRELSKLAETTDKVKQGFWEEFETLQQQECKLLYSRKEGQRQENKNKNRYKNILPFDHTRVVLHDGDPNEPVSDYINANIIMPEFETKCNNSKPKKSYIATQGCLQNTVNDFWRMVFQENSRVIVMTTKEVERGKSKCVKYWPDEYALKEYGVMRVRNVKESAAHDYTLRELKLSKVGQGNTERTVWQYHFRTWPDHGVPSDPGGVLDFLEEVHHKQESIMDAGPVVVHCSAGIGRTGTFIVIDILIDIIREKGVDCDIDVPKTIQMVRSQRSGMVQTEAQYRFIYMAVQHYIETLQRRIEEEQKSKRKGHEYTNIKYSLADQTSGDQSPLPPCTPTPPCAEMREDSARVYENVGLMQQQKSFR
As to the kind of experiment: Inhibition of SHP-2 kinase activity (Homogeneous Full Length SHP-2 Assay Kit). Format: biochemical. The conditions noted are these: relative IC50, full-length SHP-2 with activating peptide. How it is done: The objective of this test is to determine the inhibitory effect of the compounds on SHP-2 full-length protein allosteric activity.
Experimental method: Homogeneous Full Length SHP-2 Assay Kit (BPS Bioscience, #79330) was used to determine the in vitro SHP-2 activity. First, 18 μL of Master Mix was added to a 96-well low adsorption microplate (NUNC, #267342), i.e., the reaction buffer with a final concentration of 1× comprised 0.5 μM SHP-2 activating Peptide and 5 mM DTT. After centrifugation, 5 μL of test compound/DMSO was added to each well (the final DMSO content was 1%, V/V, the test compound was dissolved in DMSO to 1 mM, a three-fold serial dilution was carried out to obtain ten concentrations, the final concentration of the reaction system ranged from 1 μM to 0.05 nM). SHP-2 was diluted in the 1× reaction buffer to a final concentration of 0.06 nM, and the resulting solution was added to the reaction microplate (2 μL per well). Full activity control (compound only with DMSO) and full inhibition control (no SHP-2) were set up on the reaction plate. After centrifugation, the reaction mixture was incubated at room temperature for 60 minutes.
After completion of the incubation, 25 μL of Substrate solution, which comprised Substrate with a final concentration of 10 μM and 5 mM DTT, was added to each well. After centrifugation, the reaction mixture was incubated at room temperature for 30 minutes. After completion of the reaction, readings were measured on the Synergy H1 full-function microplate reader (BioTek) (excitation wavelength: 340 nm, emission wavelength: […], gain value: 75).
The IC50 value of the test compounds was calculated by fitting the percentage inhibition rate and data of ten concentrations to a four-parameter nonlinear logic formula with GraphPad prism.

Another experiment concerns NCI-H358 cells. As to the kind of experiment: Proliferation inhibition of NCI-H358 cells (CellTiter-Glo). Format: cell-based. Conditions: Homo sapiens, NCI-H358, 72 h; 3 days incubation. How it is done:
Experimental method: 3000 cells (90 μL of cell suspension) were inoculated to each well of a 96-well cell culture plate (Corning, #3610). The culture plate was incubated in an incubator overnight (37° C., 5% CO2). On the next day, 10 μL of gradient dilutions of the test compound solution (the final DMSO content was 0.2%, V/V, the final concentration of the reaction system ranged from 10 μM to 4.5 nM) was added to each well of the culture plate. At the same time, full activity control (compound only with DMSO) and full inhibition control (no cells) were set up on the reaction plate. The culture plate was incubated in the incubator for 3 days (37° C., 5% CO2).
After completion of the incubation, 50 μL of CellTiter-Glo reagent was added to each well of the cell culture plate, which was left to stand at room temperature for 10 minutes. The chemiluminescence signal value was measured in the Synergy H1 full-function microplate reader (BioTek). […] The IC50 value of the test compounds was calculated by fitting the percentage inhibition rate and data of eight concentrations to a four-parameter nonlinear logic formula with GraphPad prism.
The IC50 value was calculated by fitting the data of different concentrations and corresponding percentage inhibition rates to a four-parameter nonlinear logic formula with GraphPad prism.
For orientation: ATP-based viability assays read luminescence as a measure of living cells.

As a reminder, the IC50 is the concentration at which inhibition is half-maximal.

The structures appear in SMILES notation.

As for `Nc1nc(N2CCC3(CC=C(C4CC4)[C@H]3N)CC2)c(F)nc1Sc1ccnc(N)c1Cl` [Example 182, (S)-8-(6-amino-5-((2-amino-3-chloropyridin-4-yl)thio)-3-fluoropyrazin-2-yl)-2-cyclopropyl-8-azaspiro[4.5]dec-2-en-1-amine], the IC50 stood at 3.78 nM in experiment [1] and 78.5 nM with NCI-H358 cells.

In the case of `Nc1nc(N2CCC3(CC2)Cc2nc(Cl)sc2[C@H]3N)cnc1Sc1ccnc(C2CC2)c1Cl` [Example 99, (S)-1′-(6-amino-5-((3-chloro-2-cyclopropylpyridin-4-yl)thio)pyrazin-2-yl)-2-chloro-4,6-dihydrospiro[cyclopenta[d]thiazole-5,4′-piperidin]-6-amine], the IC50 in experiment [1] is 29.6 nM; in the experiment on NCI-H358 cells it was 32.8 nM.

As to `Nc1nc(N2CCC3(CC2)Cc2ccccc2[C@H]3N)cnc1Sc1ccnc(N2CCC2)c1Cl` [Example 100, (S)-1′-(6-amino-5-((2-(azetidin-1-yl)-3-chloropyridin-4-yl)thio)pyrazin-2-yl)-1,3-dihydrospiro[indene-2,4′-piperidin]-1-amine], the IC50 in experiment [1] is 0.98 nM; in the experiment on NCI-H358 cells, 24.5 nM.

In the case of `Nc1nc(N2CCC3(CC2)Cc2ccccc2[C@H]3N)cnc1Sc1ccnc(N2CCCC2)c1Cl` [Example 103, (S)-1′-(6-amino-5-((3-chloro-2-(pyrrolidin-1-yl)pyridin-4-yl)thio)pyrazin-2-yl)-1,3-dihydrospiro[indene-2,4′-piperidin]-1-amine], the IC50 in experiment [1] was determined as 0.66 nM; in the experiment with NCI-H358 cells, 47 nM.

Turning to `Nc1nc(N2CCC3(CC2)Cc2ccccc2[C@H]3N)cnc1Sc1ccnc(N)c1C1CC1` [Example 91, (S)-1′-(6-amino-5-((2-amino-3-cyclopropylpyridin-4-yl)thio)pyrazin-2-yl)-1,3-dihydrospiro[indene-2,4′-piperidin]-1-amine], the IC50 in experiment [1] was determined as 17.8 nM; in the experiment on NCI-H358 cells it was 37 nM.

Consider `N[C@@H]1c2ccccc2CC12CCN(c1cnc(Sc3ccnc(C4CC4)c3Cl)cn1)CC2` [Example 97, (S)-1′-(5-((3-chloro-2-cyclopropylpyridin-4-yl)thio)pyrazin-2-yl)-1,3-dihydrospiro[indene-2,4′-piperidin]-1-amine], for which the IC50 in experiment [1] is 13.2 nM; with NCI-H358 cells, 41.9 nM.

Regarding `Nc1nc(N2CCC3(CC2)Cc2ccccc2[C@H]3N)cnc1Sc1ccnc(N2CCOCC2)c1Cl` [Example 101, (S)-1′-(6-amino-5-((3-chloro-2-morpholinopyridin-4-yl)thio)pyrazin-2-yl)-1,3-dihydrospiro[indene-2,4′-piperidin]-1-amine], the IC50 was determined as 5.22 nM in experiment [1] and 37.7 nM in the experiment with NCI-H358 cells.

Take `Cc1nc(N2CCC3(CC2)Cc2ccccc2[C@H]3N)c(CO)nc1-c1cccc(Cl)c1Cl` [Example 105, (S)-(3-(1-amino-1,3-dihydrospiro[indene-2,4′-piperidin]-1′-yl)-6-(2,3-dichlorophenyl)-5-methylpyrazin-2-yl)methanol]: the values for the IC50 (in experiment [1]; in the experiment on NCI-H358 cells) were 1.56 nM and 10.9 nM, respectively.

For the molecule `Cc1nc(N2CCC3(CC2)Cc2ccccc2[C@H]3N)c(CO)nc1Sc1ccnc(N)c1Cl` [Example 170, (S)-(3-(1-amino-1,3-dihydrospiro[indene-2,4′-piperidin]-1′-yl)-6-((2-amino-3-chloropyridin-4-yl)thio)-5-methylpyrazin-2-yl)methanol], the IC50 in experiment [1] was determined as 6.81 nM; in the experiment on NCI-H358 cells it was 25.9 nM.

As to `Nc1nc(N2CCC3(CC2)Cc2ccccc2[C@H]3N)cnc1Sc1ccnc(N2CC(F)(F)C2)c1Cl` [Example 102, (S)-1′-(6-amino-5-((3-chloro-2-(3,3-difluoroazetidin-1-yl)pyridin-4-yl)thio)pyrazin-2-yl)-1,3-dihydrospiro[indene-2,4′-piperidin]-1-amine], the values for the IC50 (in experiment [1]; in the experiment with NCI-H358 cells) were 3.75 nM and 42.6 nM, respectively.

As to `Nc1nc(N2CCC3(CC2)Cc2ccccc2[C@H]3N)cnc1Sc1ccnc(C2CC2)c1Cl` [Example 93, (S)-1′-(6-amino-5-((3-chloro-2-cyclopropylpyridin-4-yl)thio)pyrazin-2-yl)-1,3-dihydrospiro[indene-2,4′-piperidin]-1-amine], the IC50 in experiment [1] was found to be 4.33 nM; in the experiment with NCI-H358 cells it was 31.1 nM.

For `CC1=CCC2(CCN(c3nc(N)c(Sc4ccnc(N)c4Cl)nc3F)CC2)[C@@H]1N` [Example 184, (S)-8-(6-amino-5-((2-amino-3-chloropyridin-4-yl)thio)-3-fluoropyrazin-2-yl)-2-methyl-8-azaspiro[4.5]dec-2-en-1-amine], the IC50 in experiment [1] was 4.25 nM; in the experiment on NCI-H358 cells, 56.5 nM.

Consider `Nc1nc(N2CCC3(CC2)Cc2ncsc2[C@H]3N)cnc1Sc1ccnc(C2CC2)c1Cl` [Example 98, (S)-1′-(6-amino-5-((3-chloro-2-cyclopropylpyridin-4-yl)thio)pyrazin-2-yl)-4,6-dihydrospiro[cyclopenta[d]thiazole-5,4′-piperidin]-6-amine], for which the IC50 amounted to 3.93 nM in experiment [1] and 18.5 nM with NCI-H358 cells.

On to `Nc1nc(N2CCC3(CC2)CCC2(CC2)[C@H]3N)cnc1Sc1ccnc(N)c1Cl` [Example 151, (R)-8-(6-amino-5-((2-amino-3-chloropyridin-4-yl)thio)pyrazin-2-yl)-8-azadispiro[2.1.55.23]dodecan-4-amine], for which the figures for the IC50 (in experiment [1]; in the experiment on NCI-H358 cells) were 7.71 nM and 137 nM, respectively.

For the molecule `Nc1nc(N2CCC3(CC2)CC2CC2[C@H]3N)cnc1Sc1ccnc(N)c1C1CC1` (stereo partly drawn) [Example 94, (2R)-1′-(6-amino-5-((2-amino-3-cyclopropylpyridin-4-yl)thio)pyrazin-2-yl)spiro[bicyclo[3.1.0]hexane-3,4′-piperidin]-2-amine], the IC50 stood at 11.7 nM in experiment [1] and 184 nM in the experiment on NCI-H358 cells.

Take `Cc1nc(N2CCC3(CC2)Cc2ccccc2[C@H]3N)c(CO)nc1Sc1ccnc(N)n1` [Example 183, (S)-(3-(1-amino-1,3-dihydrospiro[indene-2,4′-piperidin]-1′-yl)-6-((2-aminopyrimidin-4-yl)thio)-5-methylpyrazin-2-yl)methanol]: the IC50 in experiment [1] is 6.7 nM; with NCI-H358 cells it was 105 nM.

Turning to `Nc1nc(N2CCC3(CC2)Cc2ccccc2[C@H]3N)cnc1Sc1ccnc(Cl)c1C1CC1` [Example 92, (S)-1′-(6-amino-5-((2-chloro-3-cyclopropylpyridin-4-yl)thio)pyrazin-2-yl)-1,3-dihydrospiro[indene-2,4′-piperidin]-1-amine], the IC50 was determined as 4.17 nM in experiment [1] and 10.5 nM with NCI-H358 cells.

In the case of `Nc1nc(N2CCC3(CC2)Cc2ccccc2[C@H]3N)c(Br)nc1Sc1ccnc(N)c1Cl` [Example 95, (S)-1′-(6-amino-5-((2-amino-3-chloropyridin-4-yl)thio)-3-bromopyrazin-2-yl)-1,3-dihydrospiro[indene-2,4′-piperidin]-1-amine], the IC50 in experiment [1] came out at 6.27 nM; in the experiment on NCI-H358 cells, 6.39 nM.
